Laboratory results taken from ChEMBL document CHEMBL1139617, “Total synthesis and bioactivity of unique flavone desmosdumotin B and its analogs” (2005).

Test system: Raji
Assay: Percent viability of Raji cells at concentration of 1000 mol ratio / 20 ng/mL TPA
Assay type: functional, Homo sapiens

`CC1=C(O)C(C)(C)C(O)=C(C(=O)/C=C/c2ccccc2)C1O` (stereo unspecified) and `CC1(C)C(=O)C(C(=O)/C=C/c2ccccc2)=C(O)C(C)(C)C1=O` are the same in Viability: 70% for the first, 70% for the second.

`CC(=O)C1=C(O)C(C)(C)C(=O)C(C)(C)C1=O` and `CC(=O)C1=C(O)C(C)=C(O)C(C)(C)C1=O` are the same in Viability: 60% for the first, 60% for the second.

`COC1=C(C)C(=O)c2c(oc(-c3ccccc3)cc2=O)C1(C)C` and `CC1=C(O)C(C)(C)c2oc(-c3ccccc3)cc(=O)c2C1=O` [DESMOTUMOTIN B] are the same in Viability: 70% for the first, 70% for the second.

`CC(=O)C1=C(O)C(C)(C)C(O)=CC1=O` and `CC(=O)C1=C(O)C(C)(C)C(O)=C(C(C)=O)C1=O` are the same in Viability: 60% for the first, 60% for the second.

`COC1=C(C)C(O)=C(C(=O)/C=C/c2ccccc2)C(=O)C1(C)C` [DESMOSDUMOTIN C] and `CC1=C(O)C(C)(C)C2=C(C(=O)CC(c3ccccc3)O2)C1=O` (stereo unspecified) are the same in Viability: 70% for the first, 70% for the second.

In the case of `CC(=O)c1c(O)cc(O)c(C(C)=O)c1O`, the Viability is reported as 60%.
